From patent publication US20150306232A1, “HYDROGELATORS COMPRISING D-AMINO ACIDS” (BRANDEIS UNIVERSITY, priority 2012, published 2015) come the findings set out here.

Data set [1] can be described thus: in vitro release of hydrogelators from hydrogels. The data set is classed as physicochemical. To be noted: 0.8 wt % hydrogel, PBS pH 7.4, 37° C., after 24 hours. Here is the method: After studying their drug efficacies, the sustained release of Npx-containing hydrogelators from 0.8 wt % of hydrogels was studied. We incubated 100 μL of hydrogels at 37° C. for 24 hours with 100 μL of PBS buffer solution (pH 7.4), which is refreshed and monitored at 1 h, 2 h, 4 h, 8 h, 12 h, and 24 h. […] After 24 hours, hydrogel 1 slowly and steadily released 6.5% of the hydrogelator. […] Hydrogels 5 and 6 release 35.8% and 31.7% of hydrogelators after 24 h.
To illustrate the in vitro release profile of hydrogelators, we prepared 100 μL of the hydrogels formed by 1 (0.8 wt %, pH 4.0), 2 (0.8 wt %, pH 7.6), 3 (0.8 wt %, pH 7.6), 4 (0.8 wt %, pH 7.6), 5 (0.8 wt %, pH 7.0), and 6 (0.8 wt %, pH 7.0). With the addition of PBS buffer (100 μL, pH 7.4) onto the surface of hydrogels, the gels were incubated at 37° C. for 24 hours. The release solutions (100 μL) were taken and refreshed at […], 2 h, 4 h, 8 h, 12 h, and 24 h, which were detected by analytical HPLC at 276 nm for the quantities of released Npx containing hydrogelators 1, 2, 3, 4, 5, and 6.

The next data set relates to HeLa cells. Nature of the data set: MTT cytotoxicity of Npx containing hydrogelators. It counts as cell-based.
Data set [2] in a line: rheological measurement of Npx containing hydrogels. The data set is classed as physicochemical. To be noted: hydrogel 0.8 wt %. On the procedure: Rheological tests were conducted on TA ARES G2 rheometer with TA Orchestrator Software. 25 mm cone-plate was used during the experiment. 0.2 mL of hydrogel sample was placed on the cone-plate.
The measurement performs at the frequency of 6.28 rad/s (0.1 to 10% strain, frequency=10 rads^−1, 10 points per decade). Sweep mode is “log” and temperature was carried out at 25° C. The critical strain (γc) value was determined from the storage-strain profiles of the hydrogel sample. The strain applied to the hydrogel sample increased from 0.1 to 100% (10 rad/s and 25° C.). Over a certain strain, a drop in the elastic modulus was observed, and the strain amplitude at which storage moduli just begins to decrease by 5% from its maximum value was determined and taken as a measure of the critical strain of the hydrogels, which correspond to the breakdown of the cross-linked network in the hydrogel sample.
The frequency ranges from 200 rad/s to 0.1 rad/s, depending on the viscoelastic properties of each sample. A suitable strain was used to ensure the linearity of dynamic viscoelasticity.

Procedure for HeLa cells: The HeLa cells in good condition were seeded into 96-well plate (2×10^5 cells/well) in 100 μL of MEM medium with 10% FBS. With 12 hours of incubation at 37° C. and 5% CO2, the HeLa cells were attached to bottom of 96-well plate. Then the medium was replaced by another 100 μL of growth medium that contained serial diluents of our compounds and the cells were incubated at 37° C. and 5% CO2 for additional 72 hours. The compounds were stocked at 10 μM in DMSO, followed by further dilutions with MEM medium. All of these serial diluents were adjusted to contain 0.5% of DMSO.

With `COc1ccc2cc([C@H](C)C(=O)N[C@H](Cc3ccccc3)C(=O)N[C@H](Cc3ccccc3)C(=O)N[C@H](Cc3ccc(O)cc3)C(=O)O)ccc2c1` [compound 2, Npx-ffy], the “hydrogelator released from hydrogel” value in data set [1] was found to be 8.0%. Besides, the “cell proliferation based on the numbers of HeLa cells” value in the data set with HeLa cells is “no promotion of the cell proliferation”. For the same molecule, in data set [2], the critical strain is recorded as 1.6%. Moreover, the “storage modulus G′” value in data set [2] (6.28 rad/s) is 6.2×10^2 Pa.
